In PubChem BioAssay AID192 (DTP/NCI, 2004):
Several values for one entry are separate records, joined by “and”; a condition that tells them apart may be missing. Equal values may be shown once. Toxic doses and inconclusive results are not listed. How the source made its calls: active means survival T/C of 150% or more; inactive means T/C below 125% in these data.

Test system: BDF1 mice, B16 melanoma ip, median survival T/C
Test: NCI In Vivo Anticancer Drug Screen. Data for tumor model B16 Melanoma (intraperitoneal) in B6D2F1 (BDF1) mice
Conditions: endpoint: median survival time, higher = longer survival
Summary of the method: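 Read-out: survival or tumor size, given as treated/control ratio. Controls received vehicle only; animals bore transplantable tumors.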

[1] = dose: 0.75 mg/kg/injection, schedule: Q01DX009 (ip), vehicle: Klucel (hydroxypropylcellulose) (HPC)
[2] = dose: 1.5 mg/kg/injection, schedule: Q01DX009 (ip), vehicle: Klucel (hydroxypropylcellulose) (HPC)
[3] = dose: 50.0 mg/kg/injection, schedule: Q01DX009 (ip), vehicle: Klucel (hydroxypropylcellulose) (HPC)
[4] = dose: 6.25 mg/kg/injection, schedule: Q01DX009 (ip), vehicle: saline with Tween-80
[5] = dose: 12.5 mg/kg/injection, schedule: Q01DX009 (ip), vehicle: saline with Tween-80
[6] = dose: 0.5 mg/kg/injection, schedule: Q01DX009 (ip), vehicle: saline
[7] = dose: 1.0 mg/kg/injection, schedule: Q01DX009 (ip), vehicle: saline
[8] = dose: 2.0 mg/kg/injection, schedule: Q01DX009 (ip), vehicle: saline
[9] = dose: 4.0 mg/kg/injection, schedule: Q01DX009 (ip), vehicle: saline
[10] = dose: 100.0 mg/kg/injection, schedule: Q01DX009 (ip), vehicle: Klucel (hydroxypropylcellulose) (HPC)
[11] = dose: 200.0 mg/kg/injection, schedule: Q01DX009 (ip), vehicle: Klucel (hydroxypropylcellulose) (HPC)
[12] = dose: 25.0 mg/kg/injection, schedule: Q01DX009 (ip), vehicle: saline with Tween-80
[13] = dose: 100.0 mg/kg/injection, schedule: Q01DX009 (ip), vehicle: saline with Tween-80
[14] = dose: 200.0 mg/kg/injection, schedule: Q01DX009 (ip), vehicle: saline with Tween-80
[15] = dose: 400.0 mg/kg/injection, schedule: Q01DX009 (ip), vehicle: saline with Tween-80
[16] = dose: 400.0 mg/kg/injection, schedule: Q01DX009 (ip), vehicle: Klucel (hydroxypropylcellulose) (HPC)
[17] = dose: 100.0 mg/kg/injection, schedule: Q04DX003 (ip), vehicle: Klucel (hydroxypropylcellulose) (HPC)
[18] = dose: 200.0 mg/kg/injection, schedule: Q04DX003 (ip), vehicle: Klucel (hydroxypropylcellulose) (HPC)

Measured: T/C

Cc1ccc2c(c1)CC(C)([CH2][Hg][Cl])O2 (configuration not stated)
inactive: [1] 100 % of control | dose: 0.75 mg/kg/injection, schedule: Q04DX003 (ip), vehicle: Klucel (hydroxypropylcellulose) (HPC) 95 % of control | [2] 93 % of control | dose: 1.5 mg/kg/injection, schedule: Q04DX003 (ip), vehicle: Klucel (hydroxypropylcellulose) (HPC) 100 % of control | dose: 3.0 mg/kg/injection, schedule: Q01DX009 (ip), vehicle: Klucel (hydroxypropylcellulose) (HPC) 92 % of control and 95 % of control | dose: 3.0 mg/kg/injection, schedule: Q04DX003 (ip), vehicle: Klucel (hydroxypropylcellulose) (HPC) 93 % of control and 95 % of control

O=c1[nH]cc(F)c(=O)n1-c1ccco1
inactive: dose: 12.5 mg/kg/injection, schedule: Q01DX011 (ip), vehicle: saline with Tween-80 122 % of control | dose: 25.0 mg/kg/injection, schedule: Q01DX011 (ip), vehicle: saline with Tween-80 115 % of control

Nc1nc(N)c2cc(CNc3ccc(C(=O)NC(CC(=O)O)CC(=O)O)cc3)ccc2n1
inactive: dose: 0.04 mg/kg/injection, schedule: Q01DX009 (ip), vehicle: Klucel (hydroxypropylcellulose) (HPC) 109 % of control | dose: 0.09 mg/kg/injection, schedule: Q01DX009 (ip), vehicle: Klucel (hydroxypropylcellulose) (HPC) 95 % of control | dose: 0.19 mg/kg/injection, schedule: Q01DX009 (ip), vehicle: Klucel (hydroxypropylcellulose) (HPC) 104 % of control | dose: 0.39 mg/kg/injection, schedule: Q01DX009 (ip), vehicle: Klucel (hydroxypropylcellulose) (HPC) 95 % of control | dose: 0.78 mg/kg/injection, schedule: Q01DX009 (ip), vehicle: Klucel (hydroxypropylcellulose) (HPC) 95 % of control and 112 % of control | dose: 1.56 mg/kg/injection, schedule: Q01DX009 (ip), vehicle: Klucel (hydroxypropylcellulose) (HPC) 112 % of control | dose: 3.12 mg/kg/injection, schedule: Q01DX009 (ip), vehicle: Klucel (hydroxypropylcellulose) (HPC) 93 % of control | dose: 6.25 mg/kg/injection, schedule: Q01DX009 (ip), vehicle: Klucel (hydroxypropylcellulose) (HPC) 93 % of control | dose: 12.5 mg/kg/injection, schedule: Q01DX009 (ip), vehicle: Klucel (hydroxypropylcellulose) (HPC) 90 % of control and 101 % of control and 102 % of control | dose: 25.0 mg/kg/injection, schedule: Q01DX009 (ip), vehicle: Klucel (hydroxypropylcellulose) (HPC) 98 % of control and 124 % of control | [3] 99 % of control

Cc1cc(C)c(C(Cl)(Cl)Cl)c(C)c1Cl
inactive: dose: 1.56 mg/kg/injection, schedule: Q01DX009 (ip), vehicle: saline with Tween-80 93 % of control | dose: 3.13 mg/kg/injection, schedule: Q01DX009 (ip), vehicle: saline with Tween-80 90 % of control | [4] 99 % of control | [5] 103 % of control

CC[As](=O)(O)CC
inactive: dose: 50.0 mg/kg/injection, schedule: Q01DX009 (ip), vehicle: saline 97 % of control | dose: 100.0 mg/kg/injection, schedule: Q01DX009 (ip), vehicle: saline 103 % of control | dose: 200.0 mg/kg/injection, schedule: Q01DX009 (ip), vehicle: saline 105 % of control

COc1cc2c(cc1O)N=C[C@@H]1CCC(O)N1C2=O (mixture of isomers)
inactive: [6] 99 % of control | [7] 99 % of control | [8] 98 % of control | [9] 101 % of control and 119 % of control

c1ccc(-c2cnoc2-c2ccccc2)cc1
inactive: [3] 100 % of control | [10] 107 % of control | [11] 100 % of control

CCOC(=O)C(N)C[S][Sn]([CH3])([CH3])[Cl] (configuration not stated)
inactive: [4] 105 % of control | [5] 88 % of control | [12] 100 % of control

CC1CCCCC1NC(=O)NCCOC(=O)OCCNC(=O)NC1CCCCC1C (configuration not stated)
inactive: [13] 97 % of control | [14] 95 % of control | [15] 97 % of control

CCCCCCCCCCCCNC(=O)CCl
inactive: [10] 104 % of control | [11] 102 % of control | [16] 100 % of control

CCCCCCC(=O)CC(SCC)c1ccccc1Cl (configuration not stated)
inactive: [12] 107 % of control | dose: 50.0 mg/kg/injection, schedule: Q01DX009 (ip), vehicle: saline with Tween-80 107 % of control | [13] 107 % of control | [14] 100 % of control | [15] 91 % of control

NC(=O)Oc1ccccc1
inactive: [10] 100 % of control | dose: 100.0 mg/kg/injection, schedule: Q04DX003 (ip), vehicle: saline with Tween-80 106 % of control | [11] 100 % of control | dose: 200.0 mg/kg/injection, schedule: Q04DX003 (ip), vehicle: saline with Tween-80 113 % of control | dose: 400.0 mg/kg/injection, schedule: Q04DX003 (ip), vehicle: saline with Tween-80 110 % of control

OCCN1CCN(CC/C=C2/c3ccccc3Sc3ccc(C(F)(F)F)cc32)CC1
inactive: dose: 0.25 mg/kg/injection, schedule: Q01DX009 (ip), vehicle: saline 97 % of control | [6] 106 % of control | [7] 111 % of control | [8] 105 % of control

Cc1ccc(NS(=O)(=O)c2ccc(F)cc2)cc1Cl
inactive: [10] 90 % of control | [17] 103 % of control | [11] 100 % of control | [18] 100 % of control | [16] 86 % of control | dose: 400.0 mg/kg/injection, schedule: Q04DX003 (ip), vehicle: Klucel (hydroxypropylcellulose) (HPC) 110 % of control

C=C1C(=O)O[C@@H]2[C@H](O)[C@@H](C)[C@@H]3C=CC(=O)[C@@]3(C)[C@@H](OC(=O)/C(C)=C/C)[C@H]12
inactive: dose: 1.5 mg/kg/injection, schedule: Q01DX009 (ip), vehicle: other 101 % of control | dose: 1.5 mg/kg/injection, schedule: Q01DX009 (ip), vehicle: saline + alcohol 92 % of control | dose: 3.0 mg/kg/injection, schedule: Q01DX009 (ip), vehicle: other 98 % of control | dose: 3.0 mg/kg/injection, schedule: Q01DX009 (ip), vehicle: saline + alcohol 96 % of control | dose: 6.0 mg/kg/injection, schedule: Q01DX009 (ip), vehicle: other 99 % of control | dose: 6.0 mg/kg/injection, schedule: Q01DX009 (ip), vehicle: saline + alcohol 96 % of control

C/C=C/C=C/c1cc2cc3c(c(O)c2c(=O)[nH]1)C1(CC3)C(O)=c2c(=O)c3c(=O)cc(OC)c(=O)c=3c(=O)c2=C1O (configuration not stated)
inactive: dose: 0.06 mg/kg/injection, schedule: Q01DX009 (ip), vehicle: DMSO 98 % of control | dose: 0.12 mg/kg/injection, schedule: Q01DX009 (ip), vehicle: DMSO 99 % of control | dose: 0.25 mg/kg/injection, schedule: Q01DX009 (ip), vehicle: DMSO 96 % of control | dose: 0.5 mg/kg/injection, schedule: Q01DX009 (ip), vehicle: DMSO 120 % of control

NC(=O)c1cc([N+](=O)[O-])c(Cl)c([N+](=O)[O-])c1Cl
inactive: dose: 4.0 mg/kg/injection, schedule: Q01DX009 (ip), vehicle: Klucel (hydroxypropylcellulose) (HPC) 93 % of control | dose: 8.0 mg/kg/injection, schedule: Q01DX009 (ip), vehicle: Klucel (hydroxypropylcellulose) (HPC) 92 % of control

CCC1=C(C[C@H]2NCCc3cc(OC)c(OC)cc32)C[C@H]2c3cc(OC)c(OC)cc3CCN2C1
inactive: dose: 2.0 mg/kg/injection, schedule: Q01DX009 (ip), vehicle: Klucel (hydroxypropylcellulose) (HPC) 114 % of control | [8] 103 % of control and 111 % of control | [9] 106 % of control and 107 % of control | dose: 5.0 mg/kg/injection, schedule: Q01DX005 (ip), vehicle: saline 118 % of control | dose: 5.0 mg/kg/injection, schedule: Q01DX009 (ip), vehicle: Klucel (hydroxypropylcellulose) (HPC) 116 % of control

Cc1ccc2c(ccc3c[n+]4ccccc4c(C)c32)c1
inactive: dose: 1.25 mg/kg/injection, schedule: Q01DX009 (ip), vehicle: saline with Tween-80 95 % of control | dose: 2.5 mg/kg/injection, schedule: Q01DX009 (ip), vehicle: saline with Tween-80 95 % of control and 102 % of control | dose: 5.0 mg/kg/injection, schedule: Q01DX009 (ip), vehicle: saline with Tween-80 90 % of control and 102 % of control

[CH3][Sn]([CH3])([CH3])[S]C(=S)N1CCOCC1
inactive: [1] 100 % of control | [2] 95 % of control

O=CNC(CSC(c1ccccc1)c1ccccc1)C(=O)O (configuration not stated)
inactive: dose: 50.0 mg/kg/injection, schedule: Q04DX003 (ip), vehicle: Klucel (hydroxypropylcellulose) (HPC) 105 % of control | [17] 100 % of control | [18] 94 % of control
